Measured values taken from patent publication US20150157568A1, “Treatment of Spasticity with Intrathecal Dantrolene” (Allergan, Inc., priority 2013, published 2015).

System: awake spastic rats
Experiment: Spastic rat model (EMG activity during ankle dorsiflexion after spinal cord ischemia)
Type: in vivo, Sprague-Dawley rats
Protocol: FIG. 2 describes the rat spasticity model. (A,B) Electromyogram (EMG) responses (recorded from the gastrocnemius muscle) from an awake, but restrained normal and representative spastic rat when the ankle is rotated at velocity of (40°/3 sec) using a computer-controlled ankle rotational device. The presence of spasticity is identified by the appearance of burst EMG activity (active EMG). (C) To calculate the percent of inhibition of spastic muscle activity by a test agent during ankle dorsiflexion, animals were anaesthetized with isoflurane at the end of the experiment and the magnitude of active EMG during ankle dorsiflexion measured under isoflurane anaesthesia is then used as the maximum possible effect and is defined in each spastic animal. All drug treatment data generated after treatment are then normalized in using the maximum effect seen under isoflurane anaesthesia.
Animal: Male Sprague-Dawley rats (approximately 350 gram body weight) were used in the assay. The rats were housed at room temperature (65-82° F.) and relative humidity within the range between 30 to 70%. The room will be illuminated with fluorescent lighting on a daily 12 hour light/dark cycle. All animals will have free access to dry food. Municipal water will be freely available.
Spasticity development and measurement: Rats were exposed to transient spinal cord ischemia by aortic balloon occlusion for 10-12 minutes. Animals with fully developed spasticity will be selected at 4-8 weeks after ischemic injury and prepared for spasticity measurement. Presence of spasticity will be defined by increased peripheral muscle resistance measured during computer-controlled ankle dorsiflexion and correlative changes in EMG (electromyography) activity measured in gastrocnemius muscle (see FIG. 2).
An increased EMG activity induced by ankle dorsiflexion is a consistent and reliable measure of spasticity. Before administration of dantrolene, baseline EMG measurements were conducted. Animals with identified spasticity were then assigned to the experimental groups to be treated with dantrolene or vehicle through intraperitoneal and intrathecal routes.
Intraperitoneal dosing: Three different doses (5, 15, 50 mg/kg) of dantrolene and vehicle were injected intraperitoneally (6 rats per treatment/dose). After dantrolene administration, correlative changes in EMG were recorded at 15, 30, 60, 90, and 120 minutes following intraperitoneal injection. Changes in baseline EMG activity and ankle-rotation evoked EMG activity were then analyzed and the efficacy of treatment on spasticity calculated.
Intrathecal dosing: Animals with identified spasticity were implanted intrathecally with a fine plastic (e.g., PE-10) catheter for bolus drug delivery. Two to three days after intrathecal catheter implantation, the baseline spasticity response was measured and animals were then injected IT with dantrolene (250 μg, 6 rats) and spasticity response was measured for 2 hrs. In control animals (6 rats) vehicle was injected only.

[1] = intraperitoneal (IP), 50 mg/kg, single injection, awake spastic rats

SMILES	effect on spastic activity (positive control, maximal anti-spastic effect) (isoflurane anesthesia at the end of the experiment, defined as 0%)	effect of systemic administration on spastic activity (intraperitoneal (IP) injection, 5, 15, 50 mg/kg, awake spastic rats)	spastic activity, % of the pre-treatment level (intraperitoneal (IP), 50 mg/kg, single injection, highest dose tested, awake spastic rats)	duration of reduction of spastic activity [1]	reduction of spastic activity [1]	anti-spastic effect of intrathecal administration (intrathecal (IT), single 250 μg bolus injection, awake spastic rats (n=6), at least as robust as 50 mg/kg systemic)
FC(F)OC(Cl)C(F)(F)F (stereo not drawn) [Isoflurane]	virtually eliminated all spastic activity					
O=C1CN(/N=C/c2ccc(-c3ccc([N+](=O)[O-])cc3)o2)C(O)=N1 [dantrolene]		reduces spastic activity in the awake spastic rats in a dose dependent manner	about 30%	at least 2 hours	70%	potent anti-spastic effect
